Results reported in the supplement of paper PMC11061612.

What was measured:
Trametinib = compound: CC(=O)Nc1cccc(-n2c(=O)n(C3CC3)c(=O)c3c(Nc4ccc(I)cc4F)n(C)c(=O)c(C)c32)c1 [Trametinib]; details: max 1 µM
Summary of the method: (§1)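 Cancer cell lines were plated in 1536-well plates in 7.5 μl of DMEM/F12 or RPMI with 10% FBS and kept 24 hours at 37°C and 5% CO2 before 72 hours of dosing, with final DMSO typically 0.2%. CellTiter-Glo 2.0 luminescence measured viability, scaled between blank-well and DMSO-well means. Dose responses were fitted to a two-parameter logistic curve with a non-linear mixed effects model. This fit gives the single-agent IC50.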

Crizotinib = compound: C[C@@H](Oc1cc(-c2cnn(C3CCNCC3)c2)cnc1N)c1c(Cl)ccc(F)c1Cl [Crizotinib]; details: max 10 µM
Summary of the method: as §1

SN-38 = compound: CCc1c2c(nc3ccc(O)cc13)-c1cc3c(c(=O)n1C2)COC(=O)[C@]3(O)CC [SN-38]; details: max 0.3 µM
Summary of the method: as §1

Prexasertib = compound: COc1cccc(OCCCN)c1-c1cc(Nc2cnc(C#N)cn2)n[nH]1 [Prexasertib]; details: max 1 µM
Summary of the method: as §1

Savolitinib = compound: C[C@@H](c1ccc2nccn2c1)n1nnc2ncc(-c3cnn(C)c3)nc21 [Savolitinib]; details: max 1 µM
Summary of the method: as §1

Lapatinib = compound: CS(=O)(=O)CCNCc1ccc(-c2ccc3ncnc(Nc4ccc(OCc5cccc(F)c5)c(Cl)c4)c3c2)o1 [Lapatinib]; details: max 10 µM
Summary of the method: as §1

Gefitinib = compound: COc1cc2ncnc(Nc3ccc(F)c(Cl)c3)c2cc1OCCCN1CCOCC1 [Gefitinib]; details: max 10 µM
Summary of the method: as §1

Venetoclax = compound: CC1(C)CCC(CN2CCN(c3ccc(C(=O)NS(=O)(=O)c4ccc(NCC5CCOCC5)c([N+](=O)[O-])c4)c(Oc4cnc5[nH]ccc5c4)c3)CC2)=C(c2ccc(Cl)cc2)C1 [Venetoclax]; details: max 1 µM
Summary of the method: as §1

AZD1775 = compound: C=CCn1c(=O)c2cnc(Nc3ccc(N4CCN(C)CC4)cc3)nc2n1-c1cccc(C(C)(C)O)n1 [AZD1775]; details: max 3 µM
Summary of the method: as §1

SG3199 = compound: CC1=CN2[C@@H](C1)C=NC3=CC(=C(C=C3C2=O)OC)OCCCCCOC4=C(C=C5C(=C4)N=C[C@@H]6CC(=CN6C5=O)C)OC [SG3199]; details: max 0.001 µM
Summary of the method: as §1

AZD6738 = compound: C[C@@H]1COCCN1C2=NC(=NC(=C2)C3(CC3)[S@](=N)(=O)C)C4=C5C=CNC5=NC=C4 [AZD6738]; details: max 10 µM
Summary of the method: as §1

Taselisib = compound: Cc1nc(-c2cn3c(n2)-c2ccc(-c4cnn(C(C)(C)C(N)=O)c4)cc2OCC3)n(C(C)C)n1 [Taselisib]; details: max 10 µM
Summary of the method: as §1

AZD1390 = compound: CC(C)n1c(=O)n(C)c2cnc3cc(F)c(-c4ccc(OCCCN5CCCCC5)nc4)cc3c21 [AZD1390]; details: max 0.3 µM
Summary of the method: as §1

Alisertib = compound: COc1cc(Nc2ncc3c(n2)-c2ccc(Cl)cc2C(c2c(F)cccc2OC)=NC3)ccc1C(=O)O [Alisertib]; details: max 10 µM
Summary of the method: as §1

AZD7648 = compound: Cc1cc2ncnn2cc1Nc1ncc2c(n1)n(C1CCOCC1)c(=O)n2C [AZD7648]; details: max 10 µM
Summary of the method: as §1

AZD5153 = compound: COc1nnc2ccc(N3CCC(c4ccc(OCCN5CCN(C)C(=O)[C@H]5C)cc4)CC3)nn12 [AZD5153]; details: max 1 µM
Summary of the method: as §1

AZD2811 = compound: CCN(CCO)CCCOc1ccc2c(Nc3cc(CC(=O)Nc4cccc(F)c4)[nH]n3)ncnc2c1 [AZD2811]; details: max 1 µM
Summary of the method: as §1

Dasatinib = compound: CC1=C(C(=CC=C1)Cl)NC(=O)C2=CN=C(S2)NC3=CC(=NC(=N3)C)N4CCN(CC4)CCO [Dasatinib]; details: max 2 µM
Summary of the method: as §1

Selumetinib = compound: Cn1cnc2c(F)c(Nc3ccc(Br)cc3Cl)c(C(=O)NOCCO)cc21 [Selumetinib]; details: max 10 µM
Summary of the method: as §1

Palbociclib = compound: CC(=O)c1c(C)c2cnc(Nc3ccc(N4CCNCC4)cn3)nc2n(C2CCCC2)c1=O [Palbociclib]; details: max 10 µM
Summary of the method: as §1

Capivasertib = compound: C1CN(CCC1(C(=O)N[C@@H](CCO)C2=CC=C(C=C2)Cl)N)C3=NC=NC4=C3C=CN4 [Capivasertib]; details: max 10 µM
Summary of the method: as §1

Olaparib = compound: O=C(c1cc(Cc2n[nH]c(=O)c3ccccc23)ccc1F)N1CCN(C(=O)C2CC2)CC1 [Olaparib]; details: max 10 µM
Summary of the method: as §1

AZD8186 = compound: C[C@@H](Nc1cc(F)cc(F)c1)c1cc(C(=O)N(C)C)cc2c(=O)cc(N3CCOCC3)oc12 [AZD8186]; details: max 3 µM
Summary of the method: as §1

Doxorubicin = compound: COc1cccc2c1C(=O)c1c(O)c3c(c(O)c1C2=O)C[C@@](O)(C(=O)CO)C[C@@H]3O[C@H]1C[C@H](N)[C@H](O)[C@H](C)O1 [Doxorubicin]; details: max 1 µM
Summary of the method: as §1

AZD0156 = compound: CN(C)CCCOc1ccc(-c2ccc3ncc4c(c3c2)n(C2CCOCC2)c(=O)n4C)cn1 [AZD0156]; details: max 3 µM
Summary of the method: as §1

AZD5991 = compound: Cc1c2c(nn1C)CSCc1cc(n(C)n1)CSc1cc(c3ccccc3c1)OCCCc1c(C(=O)O)n(C)c3c-2c(Cl)ccc13 [AZD5991]; details: max 1 µM
Summary of the method: as §1

AZD4320 = compound: CN(CC[C@H](CSC1=CC=CC=C1)NC2=C(C=C(C=C2)S(=O)(=O)NC(=O)C3=CC=C(C=C3)N4CCC(CC4)[C@H](C5=CC=CC=C5C6=CC=C(C=C6)Cl)O)S(=O)(=O)C(F)(F)F)CCO [AZD4320]; details: max 1 µM
Summary of the method: as §1

Cell Line | IC50, cell viability 72 h (Trametinib) | IC50, cell viability 72 h (Crizotinib) | IC50, cell viability 72 h (SN-38) | IC50, cell viability 72 h (Prexasertib) | IC50, cell viability 72 h (Savolitinib) | IC50, cell viability 72 h (Lapatinib) | IC50, cell viability 72 h (Gefitinib) | IC50, cell viability 72 h (Venetoclax) | IC50, cell viability 72 h (AZD1775) | IC50, cell viability 72 h (SG3199) | IC50, cell viability 72 h (AZD6738) | IC50, cell viability 72 h (Taselisib) | IC50, cell viability 72 h (AZD1390) | IC50, cell viability 72 h (Alisertib) | IC50, cell viability 72 h (AZD7648) | IC50, cell viability 72 h (AZD5153) | IC50, cell viability 72 h (AZD2811) | IC50, cell viability 72 h (Dasatinib) | IC50, cell viability 72 h (Selumetinib) | IC50, cell viability 72 h (Palbociclib) | IC50, cell viability 72 h (Capivasertib) | IC50, cell viability 72 h (Olaparib) | IC50, cell viability 72 h (AZD8186) | IC50, cell viability 72 h (Doxorubicin) | IC50, cell viability 72 h (AZD0156) | IC50, cell viability 72 h (AZD5991) | IC50, cell viability 72 h (AZD4320)
COR-L311 (Small Cell Lung Carcinoma) | > 1000 nM | 2970 nM | 3.07 nM | 107 nM | > 1000 nM | > 10000 nM | > 10000 nM | 208 nM | 910 nM | > 1 nM | > 10000 nM | 1610 nM | > 300 nM | 1510 nM | > 10000 nM | 175 nM | 75.4 nM | > 2000 nM | > 10000 nM | > 10000 nM | 3020 nM | > 10000 nM | > 3000 nM | 685 nM | > 3000 nM | > 1000 nM | 1.92 nM
GI-ME-N (Neuroblastoma) | > 1000 nM | > 10000 nM | > 300 nM | 731 nM | > 1000 nM | > 10000 nM | > 10000 nM | > 1000 nM | 2220 nM | > 1 nM | > 10000 nM | > 10000 nM | > 300 nM | > 10000 nM | > 10000 nM | > 1000 nM | > 1000 nM | > 2000 nM | > 10000 nM | > 10000 nM | > 10000 nM | > 10000 nM | > 3000 nM | > 1000 nM | > 3000 nM | > 1000 nM | > 1000 nM
Hs-445 (Non-Cancerous) | > 1000 nM | > 10000 nM | 3.33 nM | 3.9 nM | > 1000 nM | > 10000 nM | > 10000 nM | > 1000 nM | 134 nM | > 1 nM | 2090 nM | 9180 nM | > 300 nM | > 10000 nM | > 10000 nM | > 1000 nM | > 1000 nM | > 2000 nM | > 10000 nM | > 10000 nM | 3880 nM | > 10000 nM | > 3000 nM | 146 nM | > 3000 nM | 213 nM | 224 nM
JSC-1 (B-Cell Non-Hodgkin's Lymphoma) | 260 nM | 6190 nM | 2.11 nM | 5.24 nM | > 1000 nM | > 10000 nM | > 10000 nM | > 1000 nM | 328 nM | > 1 nM | 1860 nM | > 10000 nM | > 300 nM | 7110 nM | > 10000 nM | 66.7 nM | > 1000 nM | > 2000 nM | 4680 nM | 5840 nM | 7450 nM | > 10000 nM | > 3000 nM | 120 nM | > 3000 nM | 33.4 nM | > 1000 nM
